These results are taken from patent US4329353A (priority 1981, dated 1982).

Structures can show the parent of a compound that is named as a salt. Where two headings read alike, the source gives them in different places.

In the experiment the test system is apomorphine-induced emesis. Nature of the experiment: animal or person. The format is in vivo, beagle dogs. The settings on record: Canis lupus familiaris, sc, 1 h.

By ED50 is commonly meant the dose that gives a 50% effect, or the effect in half of the subjects. For `N#CC1(c2ccc(F)cc2)CCC(N2CCC3(CC2)C(=O)N(C(=O)Nc2ccccc2)CN3c2ccc(F)cc2)CC1` (centres unmarked) [CONHC6 H5, B, base, (B)-8-[4-cyano-4-(4-fluorophenyl)cyclohexyl]-1-(4-fluorophenyl)-4-oxo-N-phenyl-1,3,8-triazaspiro[4,5]decane-3-carboxamide], for the setting “read-out: ED50 (APO)-dog”, the ED50 is under 160 µg/kg.
For `COC(=O)C1(c2ccc(F)cc2)CCC(N2CCC3(CC2)C(=O)NCN3c2ccc(F)cc2)CC1` (centres unmarked) [COOCH3,4-FC6 H4,4-FC6 H4, base], for the setting “read-out: ED50 (APO)dog”, the ED50 was 1.8 µg/kg.
As to `NC(=O)C1(c2ccc(F)cc2)CCC(N2CCC3(CC2)C(=O)NCN3c2ccc(F)cc2)CC1` (centres unmarked) [CONH2,4-FC6 H4,4-FC6 H4, B, base, (B)-1-(4-fluorophenyl)-4-[1-(4-fluorophenyl)-4-oxo-1,3,8-triazaspiro[4,5]dec-8-yl]cyclohexanecarboxamide], the ED50 (read-out: ED50 (APO)dog) is 8 µg/kg.
As for `CNC(=S)N1CN(c2ccc(F)cc2)C2(CCN(C3CCC(C#N)(c4ccc(F)cc4)CC3)CC2)C1=O` (centres unmarked) [CSNHCH3, base, (B)-8-[4-cyano-4-(4-fluorophenyl)cyclohexyl]-1-(4-fluorophenyl)-N-methyl-4-oxo-1,3,8-triazaspiro[4,5]decane-3-carbothioamide], for the setting “read-out: ED50 (APO)-dog”, the ED50 was under 4 µg/kg.
On the same count and under the same terms, under `CC(=O)CCN1CN(c2ccc(F)cc2)C2(CCN(C3CCC(C#N)(c4ccc(F)cc4)CC3)CC2)C1=O` (single isomer, unassigned) [CH2 CH2 COCH3, B, HCl . H2 O] stands 2 µg/kg.
